Assay results from ChEMBL document CHEMBL1833944, “Conformationally constrained farnesoid X receptor (FXR) agonists: alternative replacements of the stilbene” (Bioorg Med Chem Lett, 2011).

How the values were obtained:
Bile acid receptor [1] = target: T1, Bile acid receptor (Homo sapiens, UniProt Q96RI1); assay: Agonist activity at human FXR LBD transfected in african green monkey CV1 cells after overnight incubation by luciferase reporter gene assay; type: functional, cell-based, CV-1
T1 sequence (Q96RI1 whole entry): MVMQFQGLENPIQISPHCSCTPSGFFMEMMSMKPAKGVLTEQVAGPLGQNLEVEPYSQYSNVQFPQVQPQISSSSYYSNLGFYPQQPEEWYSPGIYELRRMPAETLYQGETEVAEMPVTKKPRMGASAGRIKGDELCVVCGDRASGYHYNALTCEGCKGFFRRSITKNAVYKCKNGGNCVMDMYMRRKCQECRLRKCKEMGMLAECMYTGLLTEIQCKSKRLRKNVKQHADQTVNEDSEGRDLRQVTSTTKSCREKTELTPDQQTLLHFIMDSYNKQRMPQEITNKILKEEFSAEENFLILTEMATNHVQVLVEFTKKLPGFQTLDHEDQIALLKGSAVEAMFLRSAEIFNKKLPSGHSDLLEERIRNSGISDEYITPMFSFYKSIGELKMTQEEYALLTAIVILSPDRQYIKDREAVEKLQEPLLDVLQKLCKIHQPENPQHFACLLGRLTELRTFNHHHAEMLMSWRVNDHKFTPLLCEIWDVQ

[2] = Clearance in rat at 1 mg/kg, iv; type: ADME, organism-based; parameters: dose 1 mg/kg, route intravenous; conditions: in vivo
Rattus norvegicus = assay: Dose normalized AUC in rat at 5 mg/kg, po; type: ADME, organism-based; parameters: dose 5 mg/kg, route oral; conditions: in vivo
[3] = Terminal half life in rat at 1 mg/kg, iv; type: ADME, organism-based; parameters: dose 1 mg/kg, route intravenous; conditions: in vivo, read-out: beta t1/2
[4] = Volume of distribution at steady state in rat at 1 mg/kg, iv; type: ADME, organism-based; parameters: dose 1 mg/kg, route intravenous; conditions: in vivo, read-out: Vdss
[5] = target: T2, Bile acid receptor (Homo sapiens) (UniProt Q96RI1); assay: Agonist activity at human FXR LBD transfected in african green monkey CV1 cells assessed as maximum efficacy after overnight incubation by luciferase reporter gene assay relative to GW4064; type: functional, cell-based; conditions: CV-1
T2 sequence (whole entry): T1 sequence (Q96RI1 whole entry)

Bile acid receptor [6] = target: T1, Bile acid receptor; assay: Agonist activity at human amino-terminal polyhistidine-tagged FXR alpha LBD (amino acids 237 to 472) assessed as cofactor peptide SRC-1 interaction with receptor ligand binding domain after 2 hrs by FRET assay
[7] = target: T2, Bile acid receptor (Homo sapiens); assay: Agonist activity at human amino-terminal polyhistidine-tagged FXR alpha LBD (amino acids 237 to 472) assessed as maximum efficacy measuring cofactor peptide SRC-1 interaction with receptor ligand binding domain after 2 hrs by FRET assay relative to GW4064
[8] = Oral bioavailability in rat at 5 mg/kg; type: ADME, organism-based; conditions: in vivo
[9] = Selectivity for human FXR over LXR alpha receptor
[10] = Selectivity for human FXR over PXR receptor
[11] = Inhibition of Cytochrome P450; type: ADME
[12] = Selectivity for human FXR over PPAR gamma receptor
[13] = Selectivity for human FXR over LXR beta receptor
[14] = Selectivity for human FXR over PPAR alpha receptor
[15] = Selectivity for human FXR over PPAR delta receptor

Row | EC50 (Bile acid receptor [1]) [nM] | clearance [2] [mL/min/kg] | AUC/dose (Rattus norvegicus) [ng·kg·h/mL/mg] | half-life [3] [h] | Vd [4] [L/kg] | Emax [5] [%] | EC50 (Bile acid receptor [6]) [nM] | Emax [7] [%] | bioavailability [8] [%] | fold change (FC) [9] | fold change (FC) [10] | IC50 [11] [nM] | fold change (FC) [12] | fold change (FC) [13] | fold change (FC) [14] | fold change (FC) [15] | Structure (SMILES)
1 | 140 | 30 | 16 | 1.17 | 0.5 | 69 | 210 | 96 | 3 |  |  |  |  |  |  |  | CC(C)c1onc(-c2c(Cl)cccc2Cl)c1COc1ccc(-c2ccc3cc(C(=O)O)[nH]c3c2)cc1
2 | 530 |  |  |  |  | 91 | 250 | 77 |  |  |  |  |  |  |  |  | CC(C)c1onc(-c2c(Cl)cccc2Cl)c1COc1ccc(-c2ccc3sc(C(=O)O)cc3c2)cc1
3 | 130 | 78 | 43 | 1.02 | 1.7 | 90 | 51 | 93 | 20 |  |  |  |  |  |  |  | CC(C)c1onc(-c2c(Cl)cccc2Cl)c1COc1ccc(-c2ccc3oc(C(=O)O)cc3c2)cc1
4 | 31 | 76 | 11 | 0.433 | 1.2 | 35 | 20 | 107 | 5.1 | > 100 | > 100 | > 5000 | > 100 | > 100 | > 100 | > 100 | CC(C)c1onc(-c2c(Cl)cccc2Cl)c1COc1ccc(-c2ccc3c(C(=O)O)c[nH]c3c2)cc1
5 |  |  |  |  |  | 100 |  | 100 |  |  |  |  |  |  |  |  | CC(C)c1onc(-c2c(Cl)cccc2Cl)c1COc1ccc(/C=C/c2cccc(C(=O)O)c2)c(Cl)c1
6 | 110 | 55 | 22 | 1.48 | 1.3 | 78 | 88 | 81 | 7.1 |  |  |  |  |  |  |  | CC(C)c1onc(-c2c(Cl)cccc2Cl)c1COc1ccc(-c2ccc3[nH]c(C(=O)O)cc3c2)cc1
7 |  |  |  |  |  | 104 |  | 134 |  |  |  |  |  |  |  |  | CC(C)c1onc(-c2c(Cl)cccc2Cl)c1COc1ccc(-c2ccc3c(C(=O)O)cccc3c2)cc1
8 | 490 |  |  |  |  | 59 | 750 | 75 |  |  |  |  |  |  |  |  | CC(C)c1onc(-c2c(Cl)cccc2Cl)c1COc1ccc(-c2ccc3c(c2)CC(C(=O)O)C3)cc1 (stereo not given)

More lines, now with the values behind:

Row | Structure (SMILES) | EC50 (Bile acid receptor [1]) [nM] | clearance [2] [mL/min/kg] | AUC/dose (Rattus norvegicus) [ng·kg·h/mL/mg] | half-life [3] [h] | Vd [4] [L/kg] | Emax [5] [%] | EC50 (Bile acid receptor [6]) [nM] | Emax [7] [%] | bioavailability [8] [%] | fold change (FC) [9] | fold change (FC) [10] | IC50 [11] [nM] | fold change (FC) [12] | fold change (FC) [13] | fold change (FC) [14] | fold change (FC) [15]
9 | CC(C)c1onc(-c2c(Cl)cccc2Cl)c1COc1ccc(Cn2ccc3ccc(C(=O)O)cc32)cc1 | 500 |  |  |  |  | 42 | 1000 | 38 |  |  |  |  |  |  |  | 
10 | CC(C)c1onc(-c2c(Cl)cccc2Cl)c1COc1ccc(-c2ccc3nc(C(=O)O)ccc3c2)cc1 |  | 32 | 130 | 2.83 | 3.4 | 102 |  | 105 |  |  |  |  |  |  |  | 
11 | CC(C)c1onc(-c2c(Cl)cccc2Cl)c1COc1ccc(-c2ccc3c(C(=O)O)csc3c2)cc1 | 24 | 50 | 0 | 0.367 | 0.73 | 81 | 21 | 115 | 0 |  |  |  |  |  |  | 
12 | CC(C)c1onc(-c2c(Cl)cccc2Cl)c1COc1ccc(-c2nc3cccc(C(=O)O)c3[nH]2)cc1 | 1300 |  |  |  |  | 36 | 1200 | 61 |  |  |  |  |  |  |  | 
13 | CC(C)c1onc(-c2c(Cl)cccc2Cl)c1COc1ccc(Sc2cccc3sc(C(=O)O)cc23)cc1 | 990 |  |  |  |  | 59 | 190 | 72 |  |  |  |  |  |  |  | 
14 | CC(C)c1onc(-c2c(Cl)cccc2Cl)c1COc1ccc(-c2ccc3c(c2)CCCC3C(=O)O)cc1 (stereo not given) | 750 |  |  |  |  | 68 | 550 | 72 |  |  |  |  |  |  |  | 
15 | CC(C)c1onc(-c2c(Cl)cccc2Cl)c1COc1ccc(-c2ccc3sc(C(=O)O)cc3n2)cc1 | 1700 |  |  |  |  | 82 | 670 | 53 |  |  |  |  |  |  |  | 
